Reference: ChEMBL document CHEMBL4507321 (2021)
Active and inactive are the calls of the source. The rule behind the calls is not given here.

Assays:
[1] = system: MEF; test: Cell growth of Fucci MEFs; format: functional, Mus musculus; conditions: Assay publication PMID: 30069049; Compound concentration 1 uM
[2] = system: EMRK1184; test: Proliferation assay with EMRK1184 lymphoma cells; format: functional, cell-based; conditions: Mus musculus
[3] = target: 5-hydroxytryptamine receptor 1A (Homo sapiens) (UniProt P08908); conditions: Compound concentration 10.0 uM
[4] = target: 5-hydroxytryptamine receptor 1B (Homo sapiens) (UniProt P28222); conditions: Compound concentration 10.0 uM
[5] = target: 5-hydroxytryptamine receptor 1D (Homo sapiens) (UniProt P28221); conditions: Compound concentration 10.0 uM
[6] = target: 5-hydroxytryptamine receptor 1E (Homo sapiens) (UniProt P28566); conditions: Compound concentration 10.0 uM
[7] = target: 5-hydroxytryptamine receptor 2A (Homo sapiens) (UniProt P28223); conditions: Compound concentration 10.0 uM
[8] = target: 5-hydroxytryptamine receptor 2B (Homo sapiens) (UniProt P41595); conditions: Compound concentration 10.0 uM
[9] = target: 5-hydroxytryptamine receptor 2C (Homo sapiens) (UniProt P28335); conditions: Compound concentration 10.0 uM
Chain of 5-hydroxytryptamine receptor 2C (Homo sapiens) (P28335 whole entry): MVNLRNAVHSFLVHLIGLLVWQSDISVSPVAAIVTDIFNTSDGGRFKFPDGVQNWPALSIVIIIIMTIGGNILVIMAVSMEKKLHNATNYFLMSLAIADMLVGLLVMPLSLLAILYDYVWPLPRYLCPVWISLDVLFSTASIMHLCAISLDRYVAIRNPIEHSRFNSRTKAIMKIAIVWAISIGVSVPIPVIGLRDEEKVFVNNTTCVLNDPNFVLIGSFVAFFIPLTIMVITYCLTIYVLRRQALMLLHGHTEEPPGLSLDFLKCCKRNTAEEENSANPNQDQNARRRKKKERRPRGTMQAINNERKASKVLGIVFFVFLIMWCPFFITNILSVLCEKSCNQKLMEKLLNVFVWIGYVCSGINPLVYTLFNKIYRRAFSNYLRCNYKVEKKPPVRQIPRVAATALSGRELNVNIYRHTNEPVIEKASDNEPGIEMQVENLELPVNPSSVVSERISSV

[10] = target: 5-hydroxytryptamine receptor 3A (Homo sapiens) (UniProt P46098); conditions: Compound concentration 10.0 uM
[11] = target: 5-hydroxytryptamine receptor 5A (Homo sapiens) (UniProt P47898); conditions: Compound concentration 10.0 uM
[12] = target: 5-hydroxytryptamine receptor 7 (Homo sapiens) (UniProt P34969); conditions: Compound concentration 10.0 uM
Chain of 5-hydroxytryptamine receptor 7 (Homo sapiens) (P34969 whole entry): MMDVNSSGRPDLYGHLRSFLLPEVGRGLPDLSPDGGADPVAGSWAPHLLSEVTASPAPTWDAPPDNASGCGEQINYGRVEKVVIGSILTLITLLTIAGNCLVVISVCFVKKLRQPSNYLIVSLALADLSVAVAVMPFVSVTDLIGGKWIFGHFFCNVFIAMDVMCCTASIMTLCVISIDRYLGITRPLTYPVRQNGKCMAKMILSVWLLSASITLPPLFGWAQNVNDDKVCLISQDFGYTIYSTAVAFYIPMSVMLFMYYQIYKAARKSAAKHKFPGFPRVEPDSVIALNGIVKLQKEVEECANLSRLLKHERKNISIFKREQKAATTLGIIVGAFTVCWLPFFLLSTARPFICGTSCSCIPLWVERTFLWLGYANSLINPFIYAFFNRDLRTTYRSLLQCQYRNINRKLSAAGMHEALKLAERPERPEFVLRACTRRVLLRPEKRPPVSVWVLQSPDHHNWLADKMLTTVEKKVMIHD

[13] = target: D(1A) dopamine receptor (Homo sapiens) (UniProt P21728); conditions: Compound concentration 10.0 uM
Chain of D(1A) dopamine receptor (Homo sapiens) (P21728 whole entry): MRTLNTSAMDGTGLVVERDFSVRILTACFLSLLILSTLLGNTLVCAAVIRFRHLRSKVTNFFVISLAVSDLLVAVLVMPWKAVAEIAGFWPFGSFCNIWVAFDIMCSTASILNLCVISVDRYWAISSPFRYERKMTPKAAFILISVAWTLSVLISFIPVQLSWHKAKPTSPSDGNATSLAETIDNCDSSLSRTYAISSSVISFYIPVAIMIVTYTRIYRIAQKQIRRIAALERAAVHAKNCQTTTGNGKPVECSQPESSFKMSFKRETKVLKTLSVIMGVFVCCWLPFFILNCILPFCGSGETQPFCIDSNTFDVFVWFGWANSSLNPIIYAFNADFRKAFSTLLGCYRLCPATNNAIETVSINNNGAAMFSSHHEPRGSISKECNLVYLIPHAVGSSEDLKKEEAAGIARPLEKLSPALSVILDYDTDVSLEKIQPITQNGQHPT

[14] = target: D(2) dopamine receptor (Homo sapiens) (UniProt P14416); conditions: Compound concentration 10.0 uM
[15] = target: D(3) dopamine receptor (Homo sapiens) (UniProt P35462); conditions: Compound concentration 10.0 uM
[16] = target: D(4) dopamine receptor (Homo sapiens) (UniProt P21917); conditions: Compound concentration 10.0 uM
Chain of D(4) dopamine receptor (Homo sapiens) (P21917 whole entry): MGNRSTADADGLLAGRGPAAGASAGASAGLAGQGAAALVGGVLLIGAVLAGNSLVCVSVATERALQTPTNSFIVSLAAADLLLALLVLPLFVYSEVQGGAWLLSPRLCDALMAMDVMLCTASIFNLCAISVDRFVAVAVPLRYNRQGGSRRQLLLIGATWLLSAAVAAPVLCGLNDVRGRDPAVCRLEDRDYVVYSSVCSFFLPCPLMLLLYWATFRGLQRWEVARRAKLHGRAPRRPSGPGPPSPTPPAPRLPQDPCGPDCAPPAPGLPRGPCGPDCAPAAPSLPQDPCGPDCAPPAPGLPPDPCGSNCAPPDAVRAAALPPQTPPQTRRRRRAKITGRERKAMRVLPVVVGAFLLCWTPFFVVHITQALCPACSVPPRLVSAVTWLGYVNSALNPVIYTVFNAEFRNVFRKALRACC

[17] = target: D(1B) dopamine receptor (Homo sapiens) (UniProt P21918); conditions: Compound concentration 10.0 uM
[18] = target: Mu-type opioid receptor (Homo sapiens) (UniProt P35372); conditions: Compound concentration 10.0 uM
Chain of Mu-type opioid receptor (Homo sapiens) (P35372 whole entry): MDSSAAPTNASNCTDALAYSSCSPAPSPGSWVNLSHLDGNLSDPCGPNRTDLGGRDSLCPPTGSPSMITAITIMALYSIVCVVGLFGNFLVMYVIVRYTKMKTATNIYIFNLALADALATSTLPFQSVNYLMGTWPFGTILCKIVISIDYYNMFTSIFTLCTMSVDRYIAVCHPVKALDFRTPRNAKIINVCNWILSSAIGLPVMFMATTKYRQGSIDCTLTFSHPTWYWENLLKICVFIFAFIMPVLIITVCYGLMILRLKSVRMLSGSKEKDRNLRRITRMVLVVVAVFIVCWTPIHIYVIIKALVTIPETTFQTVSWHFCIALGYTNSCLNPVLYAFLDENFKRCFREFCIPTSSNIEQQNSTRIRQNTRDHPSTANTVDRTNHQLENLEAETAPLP

[19] = target: Delta-type opioid receptor (Homo sapiens) (UniProt P41143); conditions: Compound concentration 10.0 uM
[20] = target: Kappa-type opioid receptor (Homo sapiens) (UniProt P41145); conditions: Compound concentration 10.0 uM
[21] = target: T1, GABA-A receptor; anion channel (Rattus norvegicus) (UniProt O09028+P15431+P18506+P18508+P19969+P20236+P23574+P23576+P28471+P28473+P30191+P62813+P63079+P63138+Q91ZM7+Q9ES14); conditions: Compound concentration 10.0 uM
[22] = target: Histamine H1 receptor (Homo sapiens) (UniProt P35367); conditions: Compound concentration 10.0 uM
[23] = target: Histamine H2 receptor (Homo sapiens) (UniProt P25021); conditions: Compound concentration 10.0 uM
[24] = target: Histamine H4 receptor (Homo sapiens) (UniProt Q9H3N8); conditions: Compound concentration 10.0 uM
[25] = target: Alpha-1A adrenergic receptor (Homo sapiens) (UniProt P35348); conditions: Compound concentration 10.0 uM
[26] = target: Alpha-1B adrenergic receptor (Homo sapiens) (UniProt P35368); conditions: Compound concentration 10.0 uM
[27] = target: Alpha-2B adrenergic receptor (Homo sapiens) (UniProt P18089); conditions: Compound concentration 10.0 uM
Chain of Alpha-2B adrenergic receptor (Homo sapiens) (P18089 whole entry): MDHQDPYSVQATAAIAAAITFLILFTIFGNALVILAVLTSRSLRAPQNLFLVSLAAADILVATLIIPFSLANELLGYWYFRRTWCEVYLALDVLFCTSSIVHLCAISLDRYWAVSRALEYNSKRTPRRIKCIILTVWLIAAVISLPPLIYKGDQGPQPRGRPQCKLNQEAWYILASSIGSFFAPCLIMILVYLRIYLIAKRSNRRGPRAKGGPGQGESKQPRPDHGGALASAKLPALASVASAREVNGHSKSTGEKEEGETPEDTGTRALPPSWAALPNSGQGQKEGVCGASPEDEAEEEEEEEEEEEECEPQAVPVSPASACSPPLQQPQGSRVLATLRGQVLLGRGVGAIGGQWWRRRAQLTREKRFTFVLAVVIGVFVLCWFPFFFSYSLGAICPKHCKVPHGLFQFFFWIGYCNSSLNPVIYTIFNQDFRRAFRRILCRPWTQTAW

[28] = target: Alpha-2C adrenergic receptor (Homo sapiens) (UniProt P18825); conditions: Compound concentration 10.0 uM
[29] = target: Beta-1 adrenergic receptor (Homo sapiens) (UniProt P08588); conditions: Compound concentration 10.0 uM
[30] = target: Beta-2 adrenergic receptor (Homo sapiens) (UniProt P07550); conditions: Compound concentration 10.0 uM
Chain of Beta-2 adrenergic receptor (Homo sapiens) (P07550 whole entry, looked up): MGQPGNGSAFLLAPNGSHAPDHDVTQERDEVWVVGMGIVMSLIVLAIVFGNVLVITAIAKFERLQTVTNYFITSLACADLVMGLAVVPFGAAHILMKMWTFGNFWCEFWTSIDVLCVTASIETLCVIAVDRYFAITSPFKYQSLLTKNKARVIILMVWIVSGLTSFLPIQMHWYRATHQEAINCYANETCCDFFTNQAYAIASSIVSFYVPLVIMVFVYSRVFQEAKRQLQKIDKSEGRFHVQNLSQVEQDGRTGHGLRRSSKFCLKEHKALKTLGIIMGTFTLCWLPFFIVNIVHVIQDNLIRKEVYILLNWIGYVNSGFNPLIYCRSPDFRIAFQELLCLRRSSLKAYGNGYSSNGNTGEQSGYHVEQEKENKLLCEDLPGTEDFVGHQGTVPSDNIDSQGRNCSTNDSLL

[31] = target: Muscarinic acetylcholine receptor M1 (Homo sapiens) (UniProt P11229); conditions: Compound concentration 10.0 uM
[32] = target: Muscarinic acetylcholine receptor M2 (Homo sapiens) (UniProt P08172); conditions: Compound concentration 10.0 uM
Chain of Muscarinic acetylcholine receptor M2 (Homo sapiens) (P08172 whole entry): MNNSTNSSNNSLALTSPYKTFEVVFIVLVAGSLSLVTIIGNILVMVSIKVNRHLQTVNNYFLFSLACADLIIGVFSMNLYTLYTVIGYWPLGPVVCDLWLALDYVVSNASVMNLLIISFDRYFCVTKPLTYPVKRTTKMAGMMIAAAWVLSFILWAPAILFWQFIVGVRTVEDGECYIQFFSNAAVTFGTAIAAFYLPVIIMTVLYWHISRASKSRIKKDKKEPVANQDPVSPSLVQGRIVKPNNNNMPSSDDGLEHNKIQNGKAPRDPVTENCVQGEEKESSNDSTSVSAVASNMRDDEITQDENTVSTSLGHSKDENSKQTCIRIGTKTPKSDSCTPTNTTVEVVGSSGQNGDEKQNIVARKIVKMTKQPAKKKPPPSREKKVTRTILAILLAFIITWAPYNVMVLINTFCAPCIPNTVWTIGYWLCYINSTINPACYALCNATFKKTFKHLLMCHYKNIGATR

[33] = target: Muscarinic acetylcholine receptor M4 (Homo sapiens) (UniProt P08173); conditions: Compound concentration 10.0 uM
[34] = target: Muscarinic acetylcholine receptor M5 (Homo sapiens) (UniProt P08912); conditions: Compound concentration 10.0 uM
[35] = target: Beta-3 adrenergic receptor (Homo sapiens) (UniProt P13945); conditions: Compound concentration 10.0 uM
[36] = target: T1, GABA-A receptor; anion channel (Rattus norvegicus); conditions: Compound concentration 10.0 uM; remark: listed apart in the source
[37] = species: Rattus norvegicus; conditions: Compound concentration 10.0 uM
[38] = target: Alpha-1D adrenergic receptor (Homo sapiens) (UniProt P25100); conditions: Compound concentration 10.0 uM
Chain of Alpha-1D adrenergic receptor (Homo sapiens) (P25100 whole entry): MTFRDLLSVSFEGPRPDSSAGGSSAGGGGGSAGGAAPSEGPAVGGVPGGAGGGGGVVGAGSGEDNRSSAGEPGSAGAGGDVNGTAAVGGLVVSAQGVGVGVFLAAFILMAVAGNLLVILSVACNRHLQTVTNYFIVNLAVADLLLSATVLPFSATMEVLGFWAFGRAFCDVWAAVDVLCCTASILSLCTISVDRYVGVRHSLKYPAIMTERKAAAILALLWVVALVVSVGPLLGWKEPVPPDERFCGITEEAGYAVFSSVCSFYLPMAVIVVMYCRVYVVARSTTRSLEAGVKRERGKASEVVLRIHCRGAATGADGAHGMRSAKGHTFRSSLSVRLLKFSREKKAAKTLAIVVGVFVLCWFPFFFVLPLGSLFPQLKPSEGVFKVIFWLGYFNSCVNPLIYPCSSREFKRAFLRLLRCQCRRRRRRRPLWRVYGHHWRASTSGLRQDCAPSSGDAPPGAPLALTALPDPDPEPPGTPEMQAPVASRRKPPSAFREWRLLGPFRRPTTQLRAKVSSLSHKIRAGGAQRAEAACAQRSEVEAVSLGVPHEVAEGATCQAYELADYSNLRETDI

[39] = target: Sigma intracellular receptor 2 (Homo sapiens) (UniProt Q5BJF2); conditions: Compound concentration 10.0 uM
[40] = target: Sigma non-opioid intracellular receptor 1 (Homo sapiens) (UniProt Q99720); conditions: Compound concentration 10.0 uM
Chain of Sigma non-opioid intracellular receptor 1 (Homo sapiens) (Q99720 whole entry): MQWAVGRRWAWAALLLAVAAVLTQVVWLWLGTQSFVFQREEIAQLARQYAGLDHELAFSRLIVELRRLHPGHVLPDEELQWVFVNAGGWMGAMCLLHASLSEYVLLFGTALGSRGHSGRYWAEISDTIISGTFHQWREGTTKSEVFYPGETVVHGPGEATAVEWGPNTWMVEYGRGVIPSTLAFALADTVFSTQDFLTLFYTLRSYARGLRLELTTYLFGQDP

[41] = target: T2, Sodium-dependent dopamine transporter (Homo sapiens, UniProt Q01959); test: GPCRScan assay: inhibition of DAT; design: radioligand conc. used [nm] 3.6 – 16.0, parental cells stable HEK
T2 sequence (Q01959 whole entry): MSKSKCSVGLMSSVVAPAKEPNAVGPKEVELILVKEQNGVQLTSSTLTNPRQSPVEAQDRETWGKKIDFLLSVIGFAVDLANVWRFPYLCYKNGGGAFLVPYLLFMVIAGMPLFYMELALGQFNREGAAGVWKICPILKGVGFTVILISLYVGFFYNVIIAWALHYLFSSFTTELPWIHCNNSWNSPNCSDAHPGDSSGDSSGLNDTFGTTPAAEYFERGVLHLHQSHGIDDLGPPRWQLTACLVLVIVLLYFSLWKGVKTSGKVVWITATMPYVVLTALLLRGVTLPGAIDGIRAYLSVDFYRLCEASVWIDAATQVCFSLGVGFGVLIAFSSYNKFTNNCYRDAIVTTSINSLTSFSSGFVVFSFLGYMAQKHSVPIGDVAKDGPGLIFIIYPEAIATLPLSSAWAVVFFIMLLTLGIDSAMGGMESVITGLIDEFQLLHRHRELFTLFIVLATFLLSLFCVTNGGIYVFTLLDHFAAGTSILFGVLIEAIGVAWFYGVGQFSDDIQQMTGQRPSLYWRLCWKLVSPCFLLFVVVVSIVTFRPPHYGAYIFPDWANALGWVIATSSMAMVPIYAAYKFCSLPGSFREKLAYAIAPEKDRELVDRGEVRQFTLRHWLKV

[42] = target: Alpha-2A adrenergic receptor (Homo sapiens, UniProt P08913); test: GPCRScan assay: inhibition of Alpha2A; design: radioligand conc. used [nm] 1.0 – 3.0, parental cells stable MDCK
[43] = target: Methionine aminopeptidase 2 (Homo sapiens, UniProt P50579); test: Biochemical activity-MetAP2 using Co
[44] = target: 5-hydroxytryptamine receptor 6 (Homo sapiens) (UniProt P50406); conditions: Compound concentration 10.0 uM
[45] = target: Sodium-dependent serotonin transporter (Homo sapiens) (UniProt P31645); conditions: Compound concentration 10.0 uM
[46] = target: Sodium-dependent noradrenaline transporter (Homo sapiens) (UniProt P23975); conditions: Compound concentration 10.0 uM
[47] = target: T2, Sodium-dependent dopamine transporter; conditions: Compound concentration 10.0 uM
[48] = target: Histamine H3 receptor (Homo sapiens) (UniProt Q9Y5N1); conditions: Compound concentration 10.0 uM
[49] = target: Alpha-2A adrenergic receptor (Homo sapiens) (UniProt P08913); conditions: Compound concentration 10.0 uM
[50] = target: Muscarinic acetylcholine receptor M3 (Homo sapiens) (UniProt P20309); conditions: Compound concentration 10.0 uM

`O=C(NNS(=O)(=O)c1ccccc1F)c1cc(F)cc(-c2ccccn2)c1` [WM-1119] was tested, and the Cell cycle effect [1] was 0, the IC50 [2] was 0.25 µM (active) and the inhibition [3] was 16%. The inhibition [4] was 13.6%, the inhibition [5] was -0.66% and the inhibition [6] was 13.8%. The inhibition [7] was -7.37%, the inhibition [8] was 2.94% and the inhibition [9] was 6.46%. The inhibition [10] was 32.9%, the inhibition [11] was -9.77% and the inhibition [12] was -3.75%. It also gave an inhibition [13] of -3.67%, an inhibition [14] of 79.6% and an inhibition [15] of 4.97%. The inhibition [16] was 23.8%, the inhibition [17] was 4.57% and the inhibition [18] was 3.45%. For the same molecule, the inhibition [19] was 20.6%, the inhibition [20] was 5.23% and the inhibition [21] was 11.7%. For the same molecule, the inhibition [22] was -8.33%, the inhibition [23] was 5.32% and the inhibition [24] was -2.44%. The inhibition [25] was 9.59%, the inhibition [26] was 7.18% and the inhibition [27] was -3.78%. The inhibition [28] was 10.2%, the inhibition [29] was -0.13% and the inhibition [30] was 13.2%. For the same molecule, the inhibition [31] was 0.14%, the inhibition [32] was 15.9% and the inhibition [33] was 20.4%. For the same molecule, the inhibition [34] was -8.87%, the inhibition [35] was 16.3% and the inhibition [36] was 75.7%. It also gave an inhibition [37] of 47%, an inhibition [38] of 3.2% and an inhibition [39] of 19.9%. For the same molecule, the inhibition [40] was 35.7%.
`O=C(NNS(=O)(=O)c1ccccc1)c1cc(-c2ccnnc2)ccc1F` [WM-2474] was tested, and the Ki [41] was greater than 10 µM, the pKi [41] was less than 5 and the Ki [42] was greater than 10 µM. The pKi [42] was less than 5, the IC50 [43] was > 50 µM (not active) and the Cell cycle effect [1] was 0. The inhibition [3] was 23.1%, the inhibition [4] was 11% and the inhibition [6] was 13.1%. It also gave an inhibition [7] of 11.8%, an inhibition [8] of 40.1% and an inhibition [9] of 7.81%. It also gave an inhibition [10] of 4.55%, an inhibition [11] of -0.06% and an inhibition [44] of 2.65%. It also gave an inhibition [12] of -1.87%, an inhibition [13] of 8.58% and an inhibition [14] of 14.7%. It also gave an inhibition [15] of -8.61%, an inhibition [16] of 9.83% and an inhibition [17] of 5.79%. The inhibition [45] was 6.15%, the inhibition [46] was -2.4% and the inhibition [47] was 80.2%. It also gave an inhibition [18] of 26.1%, an inhibition [19] of 7.99% and an inhibition [20] of -5.1%. For the same molecule, the inhibition [21] was 4.55%, the inhibition [22] was -2.04% and the inhibition [23] was -5.93%. The inhibition [48] was 15.5%, the inhibition [25] was 18.6% and the inhibition [26] was -3.44%. The inhibition [49] was 68.5%, the inhibition [27] was 3.07% and the inhibition [28] was -5.42%. For the same molecule, the inhibition [29] was 11.2%, the inhibition [30] was 10.4% and the inhibition [31] was 43.3%. The inhibition [32] was -5.57%, the inhibition [50] was 13% and the inhibition [36] was 34.6%. The inhibition [37] was -3.6%, the inhibition [38] was 17.4% and the inhibition [39] was 40.1%. For the same molecule, the inhibition [40] was 19.1%.
